According to patent US9491946B2, “Ag loaded silica nanoparticle/nanogel formulation, methods of making, and methods of use” (University of Central Florida Research Foundation, Inc., priority 2011, dated 2016):

What was measured:
E. coli, ATCC 35218 [1] = assay: bacterial growth inhibition in LB broth using turbidity (Example 2); type: cell-based, Escherichia coli; conditions: 24 hours, 37° C., OD 600 nm
Method: (§1) Antibacterial properties of C—S CuSiNP and AgSiNG materials were evaluated against a gram positive Bacillus subtilis (B. subtilis, ATCC 9372) and a gram negative Escherichia coli (E. coli, ATCC 35218) organism. For all antibacterial assays, bacterial concentration of 10^5 cells/mL was considered. Copper sulfate with same metallic copper concentration was used as positive controls and silica nanoparticle (without Cu loading) was used as negative control.
(§2) Two sets of different concentrations of C—S CuSiNP were made in LB broth (0.49, 1.2, 2.4, 4.9, 7.2 and 9.8 ppm copper concentration) to a final volume of 10 mL. 250 μL (10^5 cells/mL) of E. coli and B. subtilis were added to set 1 and 2 respectively. Silica nanoparticle was used as negative control and copper sulfate with equivalent amount of copper was used as positive control. […]
(§3) The growth inhibitory effects of C—S CuSiNP and AgSiNG against E. coli and B. subtilis were studied in liquid media (FIG. 2.3 and FIG. 2.4). Bacterial growth with different concentrations of C—S CuSiNP and AgSiNG (0.49 to 9.8 μg mL^−1) was monitored after 24 hours of incubation at 37° C. by measuring the optical density at 600 nm using Teysche800 spectrophotometer. Since the turbidity of silica based material can interfere with the optical density reading, the background measurement was subtracted to calculate the final reading.

E. coli, ATCC 35218 [2] = type: cell-based, Escherichia coli; conditions: equivalent metallic Ag concentration
Method: (§4) Antibacterial properties of AgSiNP200 and AgSiNP50 were evaluated against Gram-positive, Bacillus subtilis (B. subtilis, ATCC 9372) and Staphylococcus aureus (S. aureus, ATTC 25923) and a Gram-negative, Escherichia coli (E. coli, ATCC 35218) organism. […] All the bacteria were obtained from the UCF Department of Molecular Biology and Microbiology Preparatory Laboratories) by Microbiology Department, University of Central Florida, Orlando. All the antibacterial assays were done using Mueller Hinton II medium (Fulka Analytical, USA).
(§5) The bacterial inhibition studies for the AgSiNP200 and AgSiNP50 were done using a method as described by Rastogi et al.^41. The procedure is briefly described below. Different concentrations of AgSiNP200 (metallic silver concentrations of 63.5 μg/ml, 38.1 μg/ml, 19.05 μg/ml, 9.53 μg/ml, 4.77 μg/ml, 2.68 μg/ml, 1.34 μg/ml, 953 ng/ml, 477 ng/ml, 95.3 ng/ml and 47.7 ng/ml) and AgSiNP50 (metallic silver concentrations of 30.24 μg/ml, 20.16 μg/ml, 10.08 μg/ml, 5.04 μg/ml, 2.52 μg/ml, 1.26 μg/ml, 630 ng/ml and 63 ng/ml) were prepared in sterile Mueller Hinton II broth in sterile tubes. To achieve uniform growth for this comparative study, all the tubes contained same amount of broth. We have used 0.85% of sterile saline to make up the volume to 0.9 ml in each tube. In the next step, 0.1 ml of 10^6 CFU/ml of bacteria culture was added to each tube. […]

S. aureus, ATTC 25923 = type: cell-based, Staphylococcus aureus; conditions: equivalent metallic Ag concentration
Method: as §4, §5

B. subtilis, ATCC 9372 [3] = assay: growth inhibition assay by turbidity (OD 600 nm), Mueller Hinton II broth; type: cell-based, Bacillus subtilis; conditions: equivalent metallic Ag concentration
Method: as §4, §5

B. subtilis, ATCC 9372 [4] = assay: bacterial growth inhibition in LB broth using turbidity (Example 2); type: cell-based, Bacillus subtilis; conditions: 24 hours, 37° C., OD 600 nm
Method: as §1, §2, §3

O=[N+]([O-])[O-].[Ag+] [Ag nitrate, silver nitrate]
silver concentration at which growth inhibition can be seen (E. coli, ATCC 35218 [1]): 2.4 ppm
growth inhibition result in words (controls versus AgSiNP nanoformulations) (E. coli, ATCC 35218 [2]): no significant difference in growth inhibition results
growth inhibition result in words (controls versus AgSiNP nanoformulations) (S. aureus, ATTC 25923): no significant difference in growth inhibition results
growth inhibition result in words (controls versus AgSiNP nanoformulations) (B. subtilis, ATCC 9372 [3]): no significant difference in growth inhibition results
silver concentration at which growth inhibition can be seen (B. subtilis, ATCC 9372 [4]): 2.4 ppm
